Assay results from US8993636B2 (Alcon, Inc., priority 1998, dated 2015).
Converted amounts (≈) assume the structure as drawn.

Assays:
Experiment in all cases: Minimum inhibitory concentration (MIC90)
Format in all cases: cell-based
[1] = system: S. epidermidis/methicillin sensitive; details: Staphylococcus epidermidis, inhibits growth of 90% of the strains
Source text: (§1) The concentrations of the antibiotics of formula (I) in the compositions of the present invention will vary depending on the intended use of the compositions (e.g., treatment of existing infections or prevention of post-surgical infections), and the relative antimicrobial activity of the specific antibiotic selected. The antimicrobial activity of antibiotics is generally expressed as the minimum concentration required to inhibit the growth of a specified pathogen. This concentration is also referred to as the “minimum inhibitory concentration” or “MIC”. The term “MIC90” refers to the minimum concentration of antibiotic required to inhibit the growth of ninety percent (90%) of the strains of a species. The concentration of an antibiotic required to totally kill a specified bacteria is referred to as the “minimum bactericidal concentration” or “MBC”.

[2] = system: H influenzae/β-lactamase negative; details: inhibits growth of 90% of the strains
Source text: as §1

[3] = system: S. aureus/methicillin sensitive; details: Staphylococcus aureus, inhibits growth of 90% of the strains
Source text: as §1

[4] = system: H. influenzae/β-lactamase positive; details: Haemophilus influenzae, inhibits growth of 90% of the strains
Source text: as §1

[5] = system: S. aureus/quinolone resistant; details: Staphylococcus aureus, inhibits growth of 90% of the strains
Source text: as §1

[6] = system: S. epidermidis/methicillin resistant; details: Staphylococcus epidermidis, inhibits growth of 90% of the strains
Source text: as §1

P. aeruginosa = details: Pseudomonas aeruginosa, inhibits growth of 90% of the strains
Source text: as §1

[7] = system: S. pneumoniae/penicillin resistant; details: Streptococcus pneumoniae, inhibits growth of 90% of the strains
Source text: as §1

[8] = system: S. aureus/methicillin resistant; details: Staphylococcus aureus, inhibits growth of 90% of the strains
Source text: as §1

[9] = system: S. pneumoniae/penicillin sensitive; details: Streptococcus pneumoniae, inhibits growth of 90% of the strains
Source text: as §1

MIC90 [1]: 0.25 µg/mL (≈ 0.623 µM)
MIC90 [2]: 0.06 µg/mL (≈ 0.149 µM)
MIC90 [3]: 0.13 µg/mL (≈ 0.324 µM)
MIC90 [4]: 0.06 µg/mL (≈ 0.149 µM)
MIC90 [5]: 4 µg/mL (≈ 9.96 µM)
MIC90 [6]: 4 µg/mL (≈ 9.96 µM)
MIC90 (P. aeruginosa): 8 µg/mL (≈ 19.9 µM)
MIC90 [7]: 0.25 µg/mL (≈ 0.623 µM)
MIC90 [8]: 4 µg/mL (≈ 9.96 µM)
MIC90 [9]: 0.25 µg/mL (≈ 0.623 µM)
SMILES: COc1c(N2C[C@@H]3CCCN[C@@H]3C2)c(F)cc2c(=O)c(C(=O)O)cn(C3CC3)c12 [Moxifloxacin]
